Test results taken from ChEMBL document CHEMBL1144332, “1,2,4-Benzothiadiazine derivatives as alpha1 and 5-HT1A receptor ligands” (Bioorg Med Chem Lett, 2005).

Assays:
[1] = biological target: T1, Alpha-1A adrenergic receptor (Rattus norvegicus) (UniProt P43140); test: Antagonist potency against the alpha-1A adrenergic receptor was determined in isolated rat prostatic vas deferens; type: functional, tissue-based
T1 sequence (whole entry): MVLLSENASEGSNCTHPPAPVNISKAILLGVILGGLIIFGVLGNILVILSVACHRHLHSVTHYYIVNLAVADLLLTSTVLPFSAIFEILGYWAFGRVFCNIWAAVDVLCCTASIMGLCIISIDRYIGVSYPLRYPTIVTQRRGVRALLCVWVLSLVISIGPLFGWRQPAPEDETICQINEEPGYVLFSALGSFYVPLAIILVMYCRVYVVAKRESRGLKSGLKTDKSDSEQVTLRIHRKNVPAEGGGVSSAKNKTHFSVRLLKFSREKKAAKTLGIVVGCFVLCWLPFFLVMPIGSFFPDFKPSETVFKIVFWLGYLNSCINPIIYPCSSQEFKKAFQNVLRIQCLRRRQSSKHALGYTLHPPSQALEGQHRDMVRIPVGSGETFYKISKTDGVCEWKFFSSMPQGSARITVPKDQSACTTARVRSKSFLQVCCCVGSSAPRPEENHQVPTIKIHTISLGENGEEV

[2] = biological target: T2, 5-hydroxytryptamine receptor 1A (Homo sapiens, UniProt P08908); test: Inhibitory constant value against 5-hydroxytryptamine 1A receptor
T2 sequence (P08908 whole entry): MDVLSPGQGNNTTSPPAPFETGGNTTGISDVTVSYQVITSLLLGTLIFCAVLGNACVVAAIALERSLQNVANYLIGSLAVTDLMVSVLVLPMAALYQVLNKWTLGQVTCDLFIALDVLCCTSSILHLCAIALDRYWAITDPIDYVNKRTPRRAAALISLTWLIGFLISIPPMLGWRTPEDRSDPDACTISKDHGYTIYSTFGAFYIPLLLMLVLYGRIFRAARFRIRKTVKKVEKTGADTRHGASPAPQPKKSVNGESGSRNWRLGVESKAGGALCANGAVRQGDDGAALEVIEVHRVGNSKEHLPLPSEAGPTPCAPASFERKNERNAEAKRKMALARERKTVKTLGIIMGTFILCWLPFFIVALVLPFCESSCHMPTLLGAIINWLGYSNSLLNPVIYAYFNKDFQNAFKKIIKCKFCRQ

[3] = biological target: T3, Alpha-1B adrenergic receptor (Rattus norvegicus) (UniProt P15823); test: Antagonist potency against the alpha-1B adrenergic receptor determined in isolated rat spleen; type: functional, tissue-based
T3 sequence (whole entry): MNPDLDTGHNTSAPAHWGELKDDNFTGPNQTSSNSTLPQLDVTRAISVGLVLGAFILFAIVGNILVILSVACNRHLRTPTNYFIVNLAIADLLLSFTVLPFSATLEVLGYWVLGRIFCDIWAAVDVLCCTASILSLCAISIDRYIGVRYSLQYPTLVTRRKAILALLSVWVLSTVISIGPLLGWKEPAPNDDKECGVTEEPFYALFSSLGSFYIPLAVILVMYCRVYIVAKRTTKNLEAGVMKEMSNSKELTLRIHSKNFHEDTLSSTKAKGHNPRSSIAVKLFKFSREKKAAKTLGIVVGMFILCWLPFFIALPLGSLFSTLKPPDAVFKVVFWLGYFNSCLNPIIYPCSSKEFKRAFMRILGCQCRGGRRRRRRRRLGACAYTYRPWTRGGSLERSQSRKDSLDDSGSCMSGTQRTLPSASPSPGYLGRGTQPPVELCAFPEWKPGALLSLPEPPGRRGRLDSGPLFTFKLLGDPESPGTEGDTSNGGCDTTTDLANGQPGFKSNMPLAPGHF

[4] = biological target: Alpha adrenergic receptor 1A and 1D (Rattus norvegicus) (UniProt P23944+P43140); test: Selectivity towards alpha 1D and alpha 1A adrenergic receptors; type: protein assay
[5] = biological target: T4, Alpha-1D adrenergic receptor (Rattus norvegicus) (UniProt P23944); test: Antagonist potency against the alpha-1D adrenergic receptor was determined in isolated rat thoracic aorta; type: functional, tissue-based
T4 sequence (whole entry): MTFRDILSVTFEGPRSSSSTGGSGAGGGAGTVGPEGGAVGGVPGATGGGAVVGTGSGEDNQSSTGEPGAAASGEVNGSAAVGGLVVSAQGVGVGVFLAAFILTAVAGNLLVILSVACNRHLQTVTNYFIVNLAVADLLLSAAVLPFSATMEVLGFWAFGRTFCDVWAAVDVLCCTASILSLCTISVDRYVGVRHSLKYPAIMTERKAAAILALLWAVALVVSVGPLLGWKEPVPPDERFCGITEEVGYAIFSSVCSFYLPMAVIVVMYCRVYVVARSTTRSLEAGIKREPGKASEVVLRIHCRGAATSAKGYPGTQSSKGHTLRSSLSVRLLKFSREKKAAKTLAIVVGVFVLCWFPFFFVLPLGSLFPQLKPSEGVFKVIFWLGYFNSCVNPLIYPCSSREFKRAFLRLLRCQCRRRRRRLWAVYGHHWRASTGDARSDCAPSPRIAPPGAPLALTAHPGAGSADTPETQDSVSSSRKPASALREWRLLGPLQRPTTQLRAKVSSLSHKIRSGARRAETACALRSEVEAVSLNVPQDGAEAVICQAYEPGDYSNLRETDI

[6] = biological target: Alpha adrenergic receptor 1A and 1B (Rattus norvegicus) (UniProt P15823+P43140); test: Selectivity towards alpha 1B and alpha 1A adrenergic receptors; type: protein assay
Rattus norvegicus = species: Rattus norvegicus; test: Selectivity towards alpha 1D and alpha 1B adrenergic receptors
[7] = Selectivity towards 5-hydroxytryptamine 1A and alpha 1D adrenergic receptors was determined
[8] = biological target: T2, 5-hydroxytryptamine receptor 1A; test: Inhibitory constant value against the 5-hydroxytryptamine 1A receptor
[9] = biological target: T5, 5-hydroxytryptamine receptor 1A (Homo sapiens) (UniProt P08908); test: Potency against the 5-hydroxytryptamine 1A receptor determined by using [35S]GTP-gamma-S, binding; type: functional
T5 sequence (whole entry): T2 sequence (P08908 whole entry)

[10] = biological target: T5, 5-hydroxytryptamine receptor 1A (Homo sapiens); test: The maximal stimulation of [35S]GTP-gamma-S, binding (Emax) against the 5-hydroxytryptamine 1A receptor; type: functional

Row | Structure (SMILES) | pKb [1] | Ki [2] [nM] | pKb [3] | Selectivity [4] | pKb [5] | Selectivity [6] | Selectivity (Rattus norvegicus) | Selectivity [7] | Ki [8] [nM] | pD2 [9] | Emax [10]
1 | COc1ccccc1N1CCN(CC2=NS(=O)(=O)c3ccccc3N2)CC1 | < 5 | > 1000 | 5.46 | > 389 | 7.59 | > 3 | 135 | < 0.03 |  |  | 
2 | COc1ccccc1N1CCN(CC2=NS(=O)(=O)c3ccc(C)cc3N2)CC1 | < 5 |  | 6.05 | > 3 | 5.5 | > 11 | 0.28 |  | 107 |  | 
3 | COc1ccccc1N1CCN(CC2Nc3ccccc3S(=O)(=O)N2)CC1 (configuration not stated) | 5.81 |  | 5.97 | 0.35 | 5.34 | 1.5 | 0.23 | 275 | 16.6 |  | 
4 | COc1ccccc1N1CCN(CC2=NS(=O)(=O)c3ccc(Cl)cc3N2)CC1 | 5.28 |  | 6.17 | 295 | 7.75 | 8 | 38 | 0.38 | 46.8 |  | 
5 | COc1ccccc1N1CCN(CCN2C(=O)CC3(CCCC3)CC2=O)CC1 [BMY-7378] |  |  | 7.48 |  |  |  |  |  | 1.26 | 9.27 | 26
6 | COc1ccccc1N1CCN(CC2Nc3cc(Cl)ccc3S(=O)(=O)N2)CC1 (configuration not stated) | 5.05 |  | 5.09 | 1 | 5 | 1 | 1 | 1100 | 9.12 | 6.92 | 23
7 | COc1ccccc1N1CCN(CC2Nc3cc(C)ccc3S(=O)(=O)N2)CC1 (configuration not stated) | 6 |  | 6.24 | 0.95 | 5.98 | 2 | 0.55 | < 10 |  |  | 
